The source of these data is patent publication US10758518B2, “Compounds and compositions for treating hematological disorders” (Curis, Inc., priority 2017, dated 2020).

For test [1], the system named is ABC-DLBCL cell line OCI-Ly10 (MYD88-L265P, CD79A ITAM). Put plainly: In vivo tumor growth inhibition in ABC-DLBCL tumor model (OCI-Ly10 xenograft). The conditions noted are these: OCI-Ly10 in female SCID Beige mice; 21 continuous days qd po; Compound A 50 mg/kg, venetoclax 75 mg/kg.
Protocol: Female SCID Beige mice were implanted with the ABC-DLBCL cell line OCI-Ly10, which harbors TLR (MYD88-L265P) and BCR (CD79A ITAM) pathway activating mutations. The mice were treated with Compound A (50 mg/kg, qd, po, suspension in 0.5% Tween 20 and 0.25% hydroxyethyl cellulose), venetoclax (75 mg/kg, qd, po, solution in 60% phosal 50PG, 30% PEG 400, and 10% ethanol) or the combination for 21 continuous days.
After the 21-day drug treatment period, the mice were given a 19-day dosing holiday. […] After the 19-day drug holiday, dosing of the respective drug treatments was reinstated to each cohort.
The test system of test [2] is SU-DHL-2 cells (MYD88-S222R). Put plainly: In vivo tumor growth inhibition in ABC-DLBCL tumor model (SU-DHL-2 xenograft). The conditions noted are these: SU-DHL-2 in female SCID Beige mice; 27 continuous days qd po; Compound A/CA-4948 100 mg/kg, venetoclax 75 mg/kg. As to the method: Female SCID Beige mice were implanted with SU-DHL-2 cells which harbor MYD88-S222R pathway activating mutations. The mice were treated with Compound A (100 mg/kg, qd, po, suspension in 0.5% Tween 20 and 0.25% hydroxyethyl cellulose), venetoclax (75 mg/kg, qd, po, solution in 60% phosal 50PG, 30% PEG 400, and 10% ethanol) or the combination for 27 continuous days.
All in life data acquisition, including body weight, tumor length, tumor diameter, tumor ulceration, clinical signs and animal mortality was collected in Study Director. Tumor ulceration was scored on a 6 level system with severity of 4 or higher requiring attention. At the end of the study (24 hours after the last dose), all surviving animals were examined externally for possible clinical abnormalities or adverse clinical signs, weighed and tumor measurements were taken for the last time.

For the next test, the system named is OCI-LY3. Put plainly: ABC-DLBCL MYD88-L265P xenograft tumor model, OCI-LY3. The format is in vivo.
The next test deals with OCI-LY10. Put plainly: ABC-DLBCL MYD88-L265P xenograft tumor model, OCI-LY10 (dose response). It is filed as in vivo.
For the next test, the system named is ABC-DLBCL PDX tumors. The test is described as follows: ABC-DLBCL PDX tumors (MYD88 and CD79B double mutants). It is filed as in vivo. The conditions noted are these: activating mutations in TLR/IL-1R and BCR pathways (MYD88 and CD79B double mutants).

Turning to `Cc1cc(-c2nc(C(=O)Nc3cc4oc(N5CCOCC5)nc4nc3N3CC[C@@H](O)C3)co2)ccn1` [Compound A], the “tumor growth inhibition (TGI)” value in test [1] turned out to be 63%. Further, the “TGI % (Day 28)” value in test [2] came out at 66%. The “efficacy in xenograft tumor model” value in the test on OCI-LY3 and with OCI-LY10 was “dose-dependent efficacy” each time. Also, the “efficacy in PDX tumors” value in the test with ABC-DLBCL PDX tumors is given as “efficacious”.

Regarding `CC1(C)CCC(CN2CCN(c3ccc(C(=O)NS(=O)(=O)c4ccc(NCC5CCOCC5)c([N+](=O)[O-])c4)c(Oc4cnc5[nH]ccc5c4)c3)CC2)=C(c2ccc(Cl)cc2)C1` [venetoclax, reference compound], the “tumor growth inhibition (TGI)” value in test [1] is on record as 71%.
